Assay results from the NIST ThermoML archive (doi:10.1021/je400252p).

Columns and labels:
[1] = for mass density / viscosity: 101.33 kPa; for mass density / surface tension liquid-gas / viscosity: Liquid; for mass density: Vibrating tube method; for surface tension liquid-gas: Ring tensiometer
[2] = refractive index (Na D-line) (dimensionless); details: 313 K; 101.33 kPa; Liquid; Standard Abbe refractometry
[3] = Molar enthalpy of transition or fusion; details: Crystal; DSC

CCCCCC[N+]12CCN(CC1)CC2.O=S(=O)([N-]S(=O)(=O)C(F)(F)F)C(F)(F)F
[1]
Details	mass density [kg/m3]	surface tension liquid-gas [mN/m]	viscosity [mPa·s]
313.15 K	1355.15	35.62	–
318.15 K	1350.93	35.33	190.8
323.15 K	1346.72	35.05	138.1
328.15 K	1342.51	34.83	107
333.15 K	1338.29	34.51	87.6

[1], DTA
Details	Glass transition temperature [°C]	Normal melting temperature [°C]
Crystal	–	36
Glass	-51	–

Details	Molar enthalpy of transition or fusion [kJ/mol]	refractive index
[2]	–	1.4379
[3]	11	–
